{"source": "patent EP0039857A1", "about": "“Preparation for the care of the skin” (Henkel Kommanditgesellschaft auf Aktien, priority 1980, dated 1981)", "key": {"[1]": {"system": "Esterase aus Schweineleber (Carboxylic-esterhydrolase EC 3.1.1.1)", "experiment": "Enzyme inhibition test, esterase (acidimetric comparison with control)", "type": "biochemical, Schwein", "conditions": "2 500 ppm test substance; substrate Citronensäuretriethylester; enzyme 1 mg in 16 ml", "procedure": "(§1) Zur Feststellung der enzyminhibierenden Wirksamkeit wurde folgende Testmethodik verwendet. Es wurden jeweils 0,2 Mol in 10 bis 20 ml physiologischer NatriumchloridLösung Substrat eingesetzt. Als Testenzyme dienten: • Esterase aus Schweineleber (Carboxylic-esterhydrolase EC 3.1.1.1) • Spezifische Aktivität: circa 100 U/mg, Einsatzkonzentration: 1 mg in 16 ml Lösung. • Als Substrat diente Citronensäuretriethylester. • Lipase aus Rhizopus arrhizus (Triacylglyceroacylhydrolase EC 3.1.1.3) • Spezifische Aktivität: circa 1 200 U/mg, Einsatzkonzentration: 0,25 mg in 20 ml Lösung • Als Substrat diente Olivenöl. Zur Stabilisierung der Emulsion wurde Natriumdesoxycholat und Gummi arabicum verwendet. Die Hemmwerte wurden bestimmt durch azidimetrischen Vergleich der Kontrolle mit der durch die Prüfsubstanz gehemmten Reaktion und in % ausgedrückt. Als Konzentration für die Hemmsubstanzen wurden 2 500 ppm gewählt."}, "[2]": {"biological_target": "T1, Lipase aus Rhizopus arrhizus (Triacylglyceroacylhydrolase EC 3.1.1.3) (Rhizopus oryzae, UniProt P61872)", "T1 construct": "Lipase aus Rhizopus arrhizus (Triacylglyceroacylhydrolase EC 3.1.1.3); host or cells: Rhizopus arrhizus (natural producer)", "T1 sequence (P61872 96-392)": "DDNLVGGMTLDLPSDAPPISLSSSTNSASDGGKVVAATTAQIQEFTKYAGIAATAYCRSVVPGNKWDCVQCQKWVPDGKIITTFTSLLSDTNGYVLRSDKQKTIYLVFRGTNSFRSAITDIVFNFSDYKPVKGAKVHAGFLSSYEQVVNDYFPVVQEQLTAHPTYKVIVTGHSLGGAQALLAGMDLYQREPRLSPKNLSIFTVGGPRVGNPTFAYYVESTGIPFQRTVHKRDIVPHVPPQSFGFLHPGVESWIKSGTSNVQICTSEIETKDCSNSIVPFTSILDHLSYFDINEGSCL", "experiment": "Enzyme inhibition test, lipase (acidimetric comparison with control)", "type": "biochemical", "conditions": "read-out: Hemmwerte in % gegen Lipase; for inhibition at 2500 ppm: substrate Olivenöl, enzyme 0,25 mg in 20 ml", "procedure": "as §1"}}}
{"smiles": "CCN(CC)C(=O)COc1ccc(Cl)cc1", "note": "[Produkt F, p-Chlor-phenoxyacet-diethylamid]", "values": [{"measurement": "Hemmwerte in % gegen Esterase", "setting": "[1]", "result": 65, "unit": "%"}, {"measurement": "inhibition at 2500 ppm", "setting": "[2]", "result": 10, "unit": "%"}]}
{"smiles": "CCN(CC)C(=O)COc1ccc(C)c(C)c1", "note": "[Produkt G, 3,4-Dimethyl-phenoxyacet-diethylamid]", "values": [{"measurement": "Hemmwerte in % gegen Esterase", "setting": "[1]", "result": 48, "unit": "%"}, {"measurement": "inhibition at 2500 ppm", "setting": "[2]", "result": 12, "unit": "%"}]}
{"smiles": "CCN(CC)C(=O)Cc1ccc(Cl)cc1", "note": "[Produkt A, p-Chlorphenylacet-diethylamid]", "values": [{"measurement": "Hemmwerte in % gegen Esterase", "setting": "[1]", "result": 77, "unit": "%"}, {"measurement": "inhibition at 2500 ppm", "setting": "[2]", "result": 23, "unit": "%"}]}
{"smiles": "CCOC(=O)C(O)(c1ccccc1)c1ccccc1", "note": "[Produkt H, Benzilsäure-ethylester]", "values": [{"measurement": "Hemmwerte in % gegen Esterase", "setting": "[1]", "result": 54, "unit": "%"}, {"measurement": "inhibition at 500 ppm", "setting": "[2]", "result": 28, "unit": "%"}]}
{"smiles": "CCN(CC)C(=O)Cc1ccc(OC)c(OC)c1", "note": "[Produkt B, 3,4-Dimethoxy-phenylacet-diethylamid]", "values": [{"measurement": "Hemmwerte in % gegen Esterase", "setting": "[1]", "result": 60, "unit": "%"}, {"measurement": "inhibition at 2500 ppm", "setting": "[2]", "result": 10, "unit": "%"}]}
{"smiles": "CCN(CC)C(=O)C(C)(C)Oc1ccc(Cl)cc1", "note": "[Produkt D, 2-(p-Chlorphenoxy)-2-methylpropionsäure-diethylamid]", "values": [{"measurement": "Hemmwerte in % gegen Esterase", "setting": "[1]", "result": 11, "unit": "%"}, {"measurement": "inhibition at 2500 ppm", "setting": "[2]", "result": 52, "unit": "%"}]}
{"smiles": "CCN(CC)C(=O)CC(c1ccccc1)c1ccccc1", "note": "[Produkt C, 3,3-Diphenyl-propionsäure-diethylamid]", "values": [{"measurement": "Hemmwerte in % gegen Esterase", "setting": "[1]", "result": 57, "unit": "%"}, {"measurement": "inhibition at 2500 ppm", "setting": "[2]", "result": 12, "unit": "%"}]}
{"smiles": "CCN(CC)C(=O)C(C)(C)Sc1ccc(Cl)cc1", "note": "[Produkt E, 2-(p-Chlor-phenylthio)-2-methylpropionsäure-diethylamid]", "values": [{"measurement": "Hemmwerte in % gegen Esterase", "setting": "[1]", "result": 30, "unit": "%"}, {"measurement": "inhibition at 2500 ppm", "setting": "[2]", "result": 59, "unit": "%"}]}
